# Experimental data from US8630703B2, “Treatment utilizing hydrophobic weak bases chemotherapeutic agents and illumination” (Technion Research & Development Foundation Limited, priority 2011, dated 2014).
# Where “and” joins values, the source holds several entries; their conditions need not be identical. Equal values may be shown once.
# What was measured:
# A549/K1.5 cells [1] = assay: XTT cytotoxicity assay with and without illumination; format: cell-based, Human
# Protocol: Human non-small cell lung cancer A549 cells and their ABCG2-overexpressing MDR (multi-drug resistant) A549/K1.5 sub-line; ovarian carcinoma cell line 2008 and its stable MRP1-transfectant 2008/MRP1; and human non-small lung cancer cell line SW1573 and its ABCB1-overexpressing subline SW1573/2R160) were maintained in RPMI-1640 medium supplemented with 10% fetal bovine serum, 2 mM glutamine, 100 μg/ml penicillin and streptomycin (Biological Industries, Beth-Haemek, Israel) in a humid atmosphere containing 5% CO2 at 37° C.
# (§7) Parental cells and their MDR (multi-drug resistant) sub-lines were seeded in 96-well plates (2×10^4 cells/well in 90 μl growth medium/well). […] Following incubation for 2 hours, the drug-containing medium was replaced by drug-free medium. The cells were then placed on an illuminator plate (Model 460, thin line series, S&S X-Ray Products Inc., Brooklyn, N.Y.) for 1 hour, thereby achieving a light dose of 5 J/cm^2 white light. After illumination, plates were further incubated for an additional 24 hours.
# Cell viability was determined using an XTT (2,3-bis-(2-methoxy-4-nitro-5-sulfophenyl)-2H-tetrazolium-5-carboxanilide) Cell Proliferation Kit (Biological Industries). The drug concentrations required to inhibit cell growth by 50% (i.e., IC50 values) were determined from the cell survival curves in the absence and in the presence of illumination. Results are presented as mean values of at least three independent experiments.
# A549/K1.5 cells [2] = assay: Crystal violet staining of illuminated monolayers; format: cell-based, Human; conditions: 10 μM 30 min, 470 nm 1 minute, 48 hours after illumination
# Protocol: (§1) A549 and A549/K1.5 cells were grown to full confluence on glass-bottom plates and loaded with 10 μM C-1330 for 30 minutes. Before illumination, the spent medium was replaced by fresh medium. Using the inverted fluorescence microscope as a source of illumination, each plate was illuminated for 1 minute at a wavelength of 470 nm, at an intensity of approximately 3 W/m^2. Cells were then incubated at 37° C. for an additional 48 hours. The cells were then washed twice with PBS, fixed with 70% methanol for 10 minutes and stained with a diluted dye solution (1:5) of crystal violet. Stained monolayer cells were then washed three times with double distilled water. Crystal violet-stained cells were then examined and photographed using an M80 binocular at a x8 magnification (Leica Microsystems GmbH), and by an inverted Cell-Observer microscope, at a x1000 magnification (Carl Zeiss).
# (§2) Monolayers of A549 and A549/K1.5 cells were pulse-incubated with C-1330 for 30 minutes, washed with drug-free medium, subjected to illumination for 1 minute with a fluorescence microscope, and incubated for 48 additional hours in growth medium. The confluent monolayers were then washed with PBS, fixed with methanol, and stained with crystal violet. The monolayers were then examined by light microscopy.
# A549 cells [3] = assay: Crystal violet staining of illuminated monolayers; format: cell-based, Human; conditions: 10 μM 30 min, 470 nm 1 minute, 48 hours after illumination
# Protocol: as §1, §2
# A549 cells [4] = assay: XTT cytotoxicity of C-1330 after chloroquine treatment, with and without illumination; format: cell-based, Human; conditions: 24 hours
# A549 cells [5] = assay: Live cell fluorescent imaging (lysosomal localization and photodestruction); format: cell-based, Human; conditions: 470 nm microscope illumination
# Protocol: (§3) Lysosomes and mitochondria were stained by incubating the cells 100 nM LysoTracker® Red or 100 nM MitoTracker® Red, respectively, for 1 hour. For subcellular localization of C-1330, cells were also stained with 10 μM C-1330 for 30 minutes.
# (§4) Nuclear staining was performed prior to fluorescence imaging by replacing the growth medium with medium containing 2 μg/ml Hoechst 33342, followed by incubation for 10 minutes. Prior to nuclear staining, A549/K1.5 cells were incubated for 1 hour with 10 μM fumitremorgin C (FTC) to prevent efflux of Hoechst 33342 by ABCG2.
# (§5) Live cell fluorescent imaging was performed using an Axiovert 200 inverted fluorescence microscope (Carl Zeiss) equipped with a digital camera. […] Light intensity was maintained at 12.5% of the maximum. The magnification used was ×630.
# (§6) Cells were pre-incubated with 10 mM ammonium chloride for 30 minutes or with 1 μM bafilomycin A1 for 60 minutes, prior to being incubated with 10 μM C-1330 for 30 minutes as described hereinabove. Ammonium chloride and bafilomycin A1 remained present during the incubation with C-1330.
# Monolayers of A549 cells were grown in glass-bottom plates and were washed in growth medium. The medium was then replaced with a special isotonic balanced salt solution lacking or containing either N,N′-dimethylthiourea (DMTU), a potent hydroxyl radical and hydrogen peroxide scavenger, L-histidine, a hydroxyl radical and singlet oxygen radical (^1O2) scavenger, or sodium azide, a singlet oxygen radical scavenger. The salt solution consisted of 10 mM HEPES pH 7.4, 120 mM NaCl, 5 mM KCl, 1 mM CaCl2, 1 mM MgCl2, and 25 mM glucose. After incubation for 1 hour, C-1330 was added to the aforementioned solution buffer for an additional 30 minutes, during which the scavengers remained present, in order to load lysosomes. The cells were then examined by fluorescent imaging as described hereinabove.
# A549 cells [6] = assay: XTT cytotoxicity of C-1330 after chloroquine treatment, with and without illumination; format: cell-based, Human
# Protocol: A549 cells were seeded in 96-well plates at a concentration of 500 cells/well for the 48 hour chloroquine treatment, or at a concentration of 1000 cells/well for the 24 hour chloroquine treatment, in a total volume of 100 μl of medium per well. Following an overnight incubation, chloroquine was then added at the indicated concentrations for 24 or 48 hours. Lysosomes were then stained with LysoTracker® Red, detected by fluorescent imaging as described hereinabove, and quantified using EZQuant software. […]
# A549 cells [7] = assay: XTT cytotoxicity assay with and without illumination
# Protocol: as §7
# Cell viability was determined using an XTT (2,3-bis-(2-methoxy-4-nitro-5-sulfophenyl)-2H-tetrazolium-5-carboxanilide) Cell Proliferation Kit (Biological Industries). […] Results are presented as mean values of at least three independent experiments.
# A549/K1.5 cells [8] = assay: Live cell fluorescent imaging (lysosomal localization and photodestruction); format: cell-based, Human; conditions: A549/K1.5; 470 nm microscope illumination
# Protocol: as §3, §4, §5, §6
# A549/K1.5 cells were incubated with 10 μM doxorubicin for 30 minutes, and then observed and illuminated (at 470 nm) by live cell fluorescent imaging as described in the Materials and Methods section. Upon illumination, the cells were photographed every second, in order to observe changes in the cells over time.
# A549 cells [9] = assay: Texas Red-phalloidin staining of F-actin; format: cell-based, Human; conditions: 10 μM 30 minutes
# Protocol: A549 cells were grown on coverslips in 24-well plates until confluence was reached. Cells were then incubated with 10 μM C-1330 for 30 minutes and then exposed to light for 1 minute, in order to achieve lysosomal photodestruction. Control cells were loaded with C-1330 but were not illuminated. C1330-loaded cells were ether fixed and stained with Texas Red®-X Phalloidin (Life Technologies) with no illumination or stained with Texas Red®-X Phalloidin 2 hours after illumination. Cells were then washed twice with PBS and fixed by adding 4% formaldehyde for 10 minutes at room temperature. Following two additional washes with PBS, 0.1% Triton X-100 was added for 10 minutes, and then washed twice to remove the Triton X-100. Blocking was then achieved using a solution of 20% skim milk and 2.5% fetal calf serum for 20 minutes. At this stage, 5 μl of Texas Red®-X Phalloidin stock solution was added to 0.2 ml of PBS and the samples were incubated for 20 minutes while being protected from light. The samples were finally rinsed to remove excess Texas Red®-X Phalloidin. Coverslips were removed gently from wells and attached onto slides using Fluoromount-G. Fluorescent cells were analyzed by a fluorescence microscope, using an excitation wavelength of 545 nm and an emission wavelength of 605 nm.
# [10] = chloroquine 20 (μM), 24 hours, no illumination
# [11] = chloroquine 20 (μM), 48 hours, no illumination
smiles,measurement,setting,value
CCN(CC)CCNc1ccc2ncn3c4ccc(OC)cc4c(=O)c1c23 [C-1330],difference in survival of illuminated and non-illuminated cells,"A549/K1.5 cells [1]; A549/K1.5, 3 μM",59%
same,cell death without illumination at the indicated concentration (LD10),"A549/K1.5 cells [1]; A549/K1.5, FIG. 9B dotted line, no illumination",approximately 10%
same,cell death with illumination at the indicated concentration (LD70),"A549/K1.5 cells [1]; A549/K1.5, FIG. 9B dotted line, white light",~70%
same,Fold sensitization,"A549/K1.5 cells [1]; A549/K1.5, control vs illumination",14
same,LD50 Control,"A549/K1.5 cells [1]; A549/K1.5, no illumination",12.269 ± 1.119 µM
same,Survival at 3000 nM Control,"A549/K1.5 cells [1]; A549/K1.5, no illumination",87 ± 4%
same,LD50 Illumination,"A549/K1.5 cells [1]; A549/K1.5, white light 1 hour (5 J/cm^2)",850 ± 23 nM
same,Survival at 3000 nM Illumination,"A549/K1.5 cells [1]; A549/K1.5, white light illumination",28 ± 1%
same,resistance of A549/K1.5 cells compared to parental A549 cells,A549/K1.5 cells [1]; no illumination,2.5 fold
same,appearance of illuminated area of monolayer (crystal violet),A549/K1.5 cells [2],region of lysed cells
same,appearance of illuminated area of monolayer (crystal violet),A549 cells [3],region of lysed cells
same,C-1330 LD50 Illumination,A549 cells [4]; chloroquine 50 (μM),0.637 ± 0.174 µM
same,Survival at 3000 nM Control,"A549 cells [4]; chloroquine 50 (μM), no illumination",92 ± 7%
same,C-1330 LD50 Illumination,A549 cells [4]; chloroquine 100 (μM),0.498 ± 0.064 µM
same,C-1330 LD50 Control,"A549 cells [4]; chloroquine 100 (μM), no illumination",15.048 ± 2.886 µM
same,lysosomal photodestruction upon blue light illumination,A549 cells [5],continuous disappearance of lysosomes
same,cell death without illumination at the indicated concentration (LD10),"A549 cells [6]; 20 μM chloroquine 48 hours, FIG. 12C dotted line, no illumination",approximately 10%
same,cell death with illumination at the indicated concentration (LD90),"A549 cells [6]; 20 μM chloroquine 48 hours, FIG. 12C dotted line, white light",~90%
same,Fold sensitization,"A549 cells [6]; chloroquine 20 (nM), 24 hours",23
same,Fold sensitization,"A549 cells [6]; chloroquine 20 (nM), 48 hours",49
same,C-1330 LD50 Illumination,"A549 cells [6]; chloroquine 20 (μM), 24 hours",0.648 ± 0.065 µM
same,Survival at 3000 nM Illumination,"A549 cells [6]; chloroquine 20 (μM), 24 hours",29% and 29 ± 07%
same,C-1330 LD50 Control,A549 cells [6]; [10],15.222 ± 0.378 µM
same,Survival at 3000 nM Control,A549 cells [6]; [10],79% and 79 ± 5%
same,C-1330 LD50 Illumination,"A549 cells [6]; chloroquine 20 (μM), 48 hours",0.7 ± 0.043 µM
same,Survival at 3000 nM Illumination,"A549 cells [6]; chloroquine 20 (μM), 48 hours",9% and 9 ± 3%
same,C-1330 LD50 Control,A549 cells [6]; [11],34.137 ± 3.084 µM
same,Survival at 3000 nM Control,A549 cells [6]; [11],88% and 88 ± 8%
same,Fold sensitization,"A549 cells [6]; chloroquine 50 (nM), 24 hours",31
same,Survival at 3000 nM Illumination,"A549 cells [6]; chloroquine 50 (μM), 24 hours",23 ± 2%
same,C-1330 LD50 Control,"A549 cells [6]; chloroquine 50 (μM), 24 hours, no illumination",19.609 ± 2.454 µM
same,Fold sensitization,"A549 cells [6]; chloroquine 100 (nM), 24 hours",30
same,Survival at 3000 nM Illumination,"A549 cells [6]; chloroquine 100 (μM), 24 hours",19 ± 3%
same,Survival at 3000 nM Control,"A549 cells [6]; chloroquine 100 (μM), 24 hours, no illumination",90 ± 9%
same,difference in survival of illuminated and non-illuminated cells,A549 cells [7]; 3 μM,29%
same,Fold sensitization,A549 cells [7]; control vs illumination,6
same,Survival at 3000 nM Control,A549 cells [7]; no illumination,72% and 72 ± 5%
same,LD50 Control,"A549 cells [7]; no illumination, 2 h drug, XTT 24 h later",5.023 ± 0.716 µM
same,LD50 Illumination,A549 cells [7]; white light 1 hour (5 J/cm^2),842 ± 208 nM
same,Survival at 3000 nM Illumination,A549 cells [7]; white light illumination,43% and 43 ± 6%
same,lysosomal photodestruction upon blue light illumination,A549/K1.5 cells [8],continuous disappearance of lysosomes
same,actin cytoskeleton after illumination,A549 cells [9]; 2 hours after illumination,devoid of cytoplasmic content and actin cytoskeleton
same,actin cytoskeleton without illumination,A549 cells [9]; no illumination,retained a normal actin cytoskeleton
